Measurements published in ChEMBL document CHEMBL1201862, “PubChem BioAssay data set” (2004).
Where “and” joins values, the source holds several entries; their conditions need not be identical. Equal entries are not always repeated. Structures can show the parent of a compound that is named as a salt.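 Step 1: Grow cells in 96-well plates. Step 2: Expose to compound for 48 hours at 5 concentrations. Step 3: Interpolate endpoints linearly; if unreached, use highest concentration. GI50 is the concentration that inhibits growth by half.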 Calls of active or inactive are those of the source. Cut-off read from the data, not from the text of the source: active = GI50 up to about 1.1 µM and inactive = higher. Residues, ends and D or L forms follow the SMILES beside them. *: point of attachment. Tfa = O=C(C(F)(F)F)*

Key:
Test in all cases: inhibition of tumour cell growth, NCI panel, 48 h
[1] = test system: ACHN
[2] = test system: DU-145
[3] = test system: HCT-15
[4] = test system: HOP-92
[5] = test system: IGROV-1
[6] = test system: K562
[7] = test system: MDA-MB-435
[8] = test system: MDA-N
[9] = test system: Malme-3M
[10] = test system: OVCAR-3
[11] = test system: OVCAR-5
[12] = test system: OVCAR-8
[13] = test system: PC-3
[14] = test system: RPMI-8226
[15] = test system: RXF 393
[16] = test system: SF-539
[17] = test system: SK-MEL-2
[18] = test system: SNB-19
[19] = test system: TK-10
[20] = test system: HCT-116

O=C(O)CC(NC(=O)C(F)(F)F)C(=O)NC(Cc1ccc(O)cc1)C(=O)O (stereo not drawn) (Tfa-Asp-Tyr-OH; configuration not given here)
GI50 [1]: > 50 µM (inactive) | GI50 [2]: > 50 µM (inactive) | GI50 [3]: > 50 µM | GI50 [4]: > 50 µM (inactive) | GI50 [5]: > 50 µM (inactive) | GI50 [6]: > 50 µM (inactive) | GI50 [7]: > 50 µM (inactive) | GI50 [8]: > 50 µM (inactive) | GI50 [9]: > 50 µM (inactive) | GI50 [10]: > 50 µM (inactive) | GI50 [11]: > 50 µM (inactive) | GI50 [12]: > 50 µM (inactive) | GI50 [13]: > 50 µM (inactive) | GI50 [14]: > 50 µM (inactive) | GI50 [15]: > 50 µM (inactive) | GI50 [16]: > 50 µM (inactive) | GI50 [17]: > 50 µM (inactive) | GI50 [18]: > 50 µM (inactive) | GI50 [19]: > 50 µM (inactive)

CCOC(=O)c1cc(NC(=O)N(CCC#N)CCN(C(=O)N[C@@H](Cc2ccccc2)C(=O)N[C@@H](CC(C)C)C(=O)NC)c2ccccc2)ccc1OC
GI50 [1]: 25.3 µM (inactive) | GI50 [2]: 44.6 µM (inactive) | GI50 [20]: 42.4 µM (inactive) | GI50 [3]: 57.4 µM | GI50 [4]: 34.3 µM (inactive) | GI50 [5]: 41.8 µM (inactive) | GI50 [7]: 30.9 µM (inactive) | GI50 [8]: 57.1 µM (inactive) | GI50 [9]: 29.4 µM (inactive) | GI50 [10]: 40.9 µM (inactive) | GI50 [11]: > 100 µM (inactive) | GI50 [12]: 84.9 µM (inactive) | GI50 [13]: 49.4 µM (inactive) | GI50 [14]: 16.3 µM (inactive) | GI50 [15]: 23.1 µM (inactive) | GI50 [16]: 31.3 µM (inactive) | GI50 [17]: 38.2 µM (inactive) | GI50 [18]: 79.4 µM (inactive) | GI50 [19]: 46.5 µM (inactive)

C=C(Cl)C(=C)CCC(Cl)C(C)(C)Cl (stereo unspecified)
GI50 [1]: > 100 µM (inactive) | GI50 [2]: > 100 µM (inactive) | GI50 [20]: > 100 µM (inactive) | GI50 [4]: > 100 µM (inactive) | GI50 [5]: > 100 µM (inactive) | GI50 [6]: > 100 µM (inactive) | GI50 [7]: > 100 µM (inactive) | GI50 [8]: > 100 µM (inactive) | GI50 [9]: > 100 µM (inactive) | GI50 [10]: > 100 µM (inactive) | GI50 [11]: > 100 µM (inactive) | GI50 [13]: > 100 µM (inactive) | GI50 [14]: > 100 µM (inactive) | GI50 [15]: > 100 µM (inactive) | GI50 [16]: > 100 µM (inactive) | GI50 [17]: > 100 µM (inactive) | GI50 [18]: > 100 µM (inactive) | GI50 [19]: > 100 µM (inactive)

COc1cc(OC)cc(-c2nc(O)c3ccccc3n2)c1
GI50 [1]: > 100 µM (inactive) | GI50 [2]: > 100 µM (inactive) | GI50 [20]: 42.5 µM (inactive) | GI50 [3]: > 100 µM | GI50 [4]: > 100 µM (inactive) | GI50 [5]: 93.1 µM (inactive) | GI50 [6]: > 100 µM (inactive) | GI50 [7]: > 100 µM (inactive) | GI50 [8]: > 100 µM (inactive) | GI50 [9]: > 100 µM (inactive) | GI50 [10]: > 100 µM (inactive) | GI50 [11]: > 100 µM (inactive) | GI50 [12]: 24.6 µM (inactive) | GI50 [13]: > 100 µM (inactive) | GI50 [14]: > 100 µM (inactive) | GI50 [15]: 29.8 µM (inactive) | GI50 [17]: > 100 µM (inactive) | GI50 [18]: 49 µM (inactive) | GI50 [19]: 43.5 µM (inactive)

COc1ccccc1/C(=N\OCCC(=O)O)c1cccs1
GI50 [1]: > 100 µM (inactive) | GI50 [2]: > 100 µM (inactive) | GI50 [20]: > 100 µM (inactive) | GI50 [3]: > 100 µM | GI50 [4]: > 100 µM (inactive) | GI50 [6]: > 100 µM (inactive) | GI50 [7]: > 100 µM (inactive) | GI50 [8]: > 100 µM (inactive) | GI50 [9]: > 100 µM (inactive) | GI50 [10]: > 100 µM (inactive) | GI50 [11]: > 100 µM (inactive) | GI50 [12]: > 100 µM (inactive) | GI50 [13]: > 100 µM (inactive) | GI50 [14]: > 100 µM (inactive) | GI50 [15]: > 100 µM (inactive) | GI50 [16]: > 100 µM (inactive) | GI50 [17]: > 100 µM (inactive) | GI50 [18]: > 100 µM (inactive) | GI50 [19]: > 100 µM (inactive)

COCn1c2ccc(OC(C)=O)cc2c2c(=O)oc(C)nc21
GI50 [1]: > 100 µM (inactive) | GI50 [2]: > 100 µM (inactive) | GI50 [20]: > 100 µM (inactive) | GI50 [3]: > 100 µM | GI50 [4]: > 100 µM (inactive) | GI50 [5]: > 100 µM (inactive) | GI50 [6]: > 100 µM (inactive) | GI50 [7]: > 100 µM (inactive) | GI50 [8]: > 100 µM (inactive) | GI50 [9]: > 100 µM (inactive) | GI50 [11]: > 100 µM (inactive) | GI50 [12]: > 100 µM (inactive) | GI50 [13]: > 100 µM (inactive) | GI50 [14]: > 100 µM (inactive) | GI50 [15]: > 100 µM (inactive) | GI50 [16]: > 100 µM (inactive) | GI50 [17]: > 100 µM (inactive) | GI50 [18]: > 100 µM (inactive) | GI50 [19]: > 100 µM (inactive)

COC(=O)[C@H](Cc1ccccc1)NC(=O)[C@H](Cc1ccccc1)NC(=O)CN1C(=O)[C@@H]2C3C=CC(C3)[C@@H]2C1=O
GI50 [1]: 16.7 µM (inactive) and 16.2 µM (inactive) | GI50 [2]: 20.1 µM (inactive) and 17.9 µM (inactive) | GI50 [20]: 16.6 µM (inactive) and 14.3 µM (inactive) | GI50 [3]: 15.6 µM and 17.4 µM | GI50 [4]: 18.3 µM (inactive) and 20.6 µM (inactive) | GI50 [5]: 16.5 µM (inactive) and 12.9 µM (inactive) | GI50 [7]: 15.3 µM (inactive) and 17.3 µM (inactive) | GI50 [8]: 16.5 µM (inactive) and 17.2 µM (inactive) | GI50 [10]: 16.6 µM (inactive) and 18 µM (inactive) | GI50 [11]: 22 µM (inactive) and 19.8 µM (inactive) | GI50 [12]: 14.8 µM (inactive) and 19.6 µM (inactive) | GI50 [13]: 15.6 µM (inactive) and 16.4 µM (inactive) | GI50 [14]: 21.6 µM (inactive) and 14.9 µM (inactive) | GI50 [15]: 20.5 µM (inactive) and 18.4 µM (inactive) | GI50 [16]: 18.7 µM (inactive) and 17.9 µM (inactive) | GI50 [17]: 18.2 µM (inactive) and 17.9 µM (inactive) | GI50 [18]: 21 µM (inactive) and 20.8 µM (inactive) | GI50 [19]: 18.9 µM (inactive) and 17.5 µM (inactive)

CC(C)Cc1cnc(CC(C)C)c(=O)[nH]1
GI50 [1]: > 100 µM (inactive) | GI50 [2]: > 100 µM (inactive) | GI50 [20]: > 100 µM (inactive) | GI50 [3]: > 100 µM | GI50 [4]: > 100 µM (inactive) | GI50 [5]: > 100 µM (inactive) | GI50 [6]: > 100 µM (inactive) | GI50 [7]: > 100 µM (inactive) | GI50 [8]: > 100 µM (inactive) | GI50 [10]: > 100 µM (inactive) | GI50 [11]: > 100 µM (inactive) | GI50 [12]: > 100 µM (inactive) | GI50 [13]: > 100 µM (inactive) | GI50 [14]: 0.705 µM (active) | GI50 [15]: > 100 µM (inactive) | GI50 [17]: > 100 µM (inactive) | GI50 [18]: > 100 µM (inactive) | GI50 [19]: > 100 µM (inactive)

O=C(CC(C(=O)c1ccco1)c1cccs1)c1cccs1 (stereo unspecified)
GI50 [1]: 58.7 µM (inactive) | GI50 [2]: > 100 µM (inactive) | GI50 [20]: 32.9 µM (inactive) | GI50 [3]: 50.2 µM | GI50 [4]: 59.4 µM (inactive) | GI50 [5]: 65.6 µM (inactive) | GI50 [7]: 35.9 µM (inactive) | GI50 [8]: 37.6 µM (inactive) | GI50 [9]: 96.2 µM (inactive) | GI50 [10]: 40.7 µM (inactive) | GI50 [11]: 61.4 µM (inactive) | GI50 [12]: 44.7 µM (inactive) | GI50 [13]: 42.5 µM (inactive) | GI50 [14]: 55.7 µM (inactive) | GI50 [15]: 51.3 µM (inactive) | GI50 [16]: > 100 µM (inactive) | GI50 [17]: 37.4 µM (inactive) | GI50 [18]: > 100 µM (inactive) | GI50 [19]: > 100 µM (inactive)

Cn1c2c(c3ccccc31)CC(=O)N1CCCCC1C21OCCO1 (stereo unspecified)
GI50 [1]: > 100 µM (inactive) | GI50 [2]: > 100 µM (inactive) | GI50 [20]: > 100 µM (inactive) | GI50 [3]: > 100 µM | GI50 [4]: > 100 µM (inactive) | GI50 [5]: > 100 µM (inactive) | GI50 [7]: > 100 µM (inactive) | GI50 [8]: > 100 µM (inactive) | GI50 [9]: > 100 µM (inactive) | GI50 [10]: > 100 µM (inactive) | GI50 [11]: > 100 µM (inactive) | GI50 [12]: > 100 µM (inactive) | GI50 [13]: > 100 µM (inactive) | GI50 [14]: > 100 µM (inactive) | GI50 [15]: > 100 µM (inactive) | GI50 [17]: > 100 µM (inactive) | GI50 [18]: > 100 µM (inactive) | GI50 [19]: > 100 µM (inactive)
